Experimental findings from article PMC12490239, “Combining BET inhibition with SMAC mimetics restricts tumor growth and triggers immune surveillance in preclinical cancer models” (Cell Reports Medicine, 2025) are described below.

Common to all, as to test: cells
Common to all, as to design: CellTiter-Glo 2.0 luminescence proliferation/viability assay, single agents, human tumour cell line panel

Assay [1] relates to BxPC-3. The following applies: Homo sapiens, BXPC-3, 96 h; single agent; read-out: IC50 SMACm. The protocol: (§1) The effect of BETi, SMACm alone or in combination cell viability was determined using a 96-h CellTiter-Glo2.0 proliferation assay. Cells were seeded in assay plates and placed at 37°C with 5% CO2 for twenty-four hours before treatment. Compounds were added in triplicate in gradients of increasing concentrations, in case of SMACm ranging between 4.5 nM and 10 μM and in case of BETi between 1.4 nM and 3 μM. DMSO served as control. Cell viability was measured by luminescence analysis using luminescence read on Envision plate readers (PerkinElmer). An additional set of colorectal cancer cell lines was assayed with technical duplicates and experimental triplicates. Cell viability was measured by luminescence analysis using luminescence read on Tecan Plate reader. The effects of drug combinations were analyzed using the Bliss Independence Model.[34] Synergy score was calculated by the average of 3 highest and 3 lowest BLISS Gaps between predicted and measured POC (Percentage of Control) values. To investigate the synergistic interaction between BI 894999 (hereafter, BETi) and BI 891065 (hereafter, SMACm), we evaluated the in vitro anti-tumor effect of the single agents or the combination in a large panel of 151 cancer cell lines of different tissue origin: CRC, gastric cancer, non-small cell lung cancer (NSCLC), and pancreatic carcinoma (Figures 1C–1F). As a mono-agent, SMACm was able to inhibit cell proliferation only in a limited number of tested cell lines (4%, Table S2). Most of the cell lines responded to inhibition by BETi, with sensitivity ranging from 10 to 100 nM (Figure 1C). Bliss Gap analysis, performed to analyze the effect of the BETi+SMACm combination on tumor cell growth (Figures 1D–1F), unveiled potent synergistic activity across the cell models tested (Figure 1E), independent of tumor type (Figure 1F).  Figure 1 The combinatorial effect of BI 894999 and BI 891065 across a panel of human tumor cell lines (A) Selectivity and potency profiles of BI 891065. Top left, structure of BI 891065. Top right, IC50 values for BI 891065 inhibition of cIAP1, cIAP2, and XIAP. Bottom, physicochemical properties of […]. (B) WES (Simple Western System) analysis of cIAP1, cIAP2, and XIAP levels upon treatment of HT-29 cells with indicated concentrations of BI 891065 for 6 h (C) IC50 values determined in cell proliferation assays (n = 151) individually for BETi BI 894999 and SMACm BI 891065. Each point represents a cell line tested. (D) Example of proliferation assay for synergy analysis in LoVo cell line; shown is combination plate map matrix and the cell growth inhibition (CGI) at the indicated concentrations; CGI values < 100%: tumor cell growth, CGI 100%: tumor cell stasis, and CGI > 100%: tumor cell killing. (E) Synergy scores across the tested panel of cell lines obtained using Bliss synergy analysis. (F) Violin plots showing the synergy scores for BETi and SMACm combination across indications. N is the number of cell lines tested in each indication group.

Assay [2] deals with KLM-1. The following applies: KLM1, 96 h; single agent; read-out: IC50 SMACm. The protocol:
as §1

Assay [3] relates to CCK81. Conditions: 96 h; single agent; read-out: IC50 SMACm. The protocol:
as §1

The test system of assay [4] is SNU1460. Conditions: 96 h; single agent; read-out: IC50 SMACm. The protocol: as §1
The subject of assay [5] is SK-LU-1. The following applies: Homo sapiens, SK-LU-1, 96 h; single agent; read-out: IC50 SMACm. The protocol:
as §1

In assay [6] the test system is C32. Conditions: Homo sapiens, C32, 96 h; single agent; read-out: IC50 SMACm. The procedure: as §1
Assay [7] relates to NCI-H2228. The following applies: Homo sapiens, NCI-H2228, 96 h; single agent; read-out: IC50 SMACm. The procedure:
as §1

Assay [8] concerns NCI-H441. The following applies: Homo sapiens, NCI-H441, 96 h; single agent; read-out: IC50 SMACm. The procedure: as §1
The test system of assay [9] is CAR1. Conditions: Homo sapiens, CaR-1, 96 h; single agent; read-out: IC50 SMACm. The procedure:
as §1

The test system of assay [10] is HCC2998. Conditions: Homo sapiens, HCC 2998, 96 h; single agent; read-out: IC50 SMACm. The procedure: as §1
Assay [11] deals with SNU254. Conditions: 96 h; single agent; read-out: IC50 SMACm. The procedure: as §1
The test system of assay [12] is KM20. Conditions: 96 h; single agent; read-out: IC50 SMACm. The protocol: as §1
The test system of assay [13] is LU-65. The following applies: Homo sapiens, Lu-65, 96 h; single agent; read-out: IC50 SMACm. The protocol:
as §1

In assay [14] the test system is SNU1411. The following applies: 96 h; single agent; read-out: IC50 SMACm. The protocol:
as §1

Assay [15] deals with HUTU80. The following applies: Homo sapiens, HuTu80, 96 h; single agent; read-out: IC50 SMACm. The procedure:
as §1

The IC50 is the concentration at which inhibition is half-maximal. In the case of `CN[C@@H](C)C(=O)Nc1ccc(-c2c(-c3cccnc3OC)nc3cc(C)ccn23)c(C#Cc2ccc3c(C)nccc3c2)n1` [SMACm, BI 891065], the IC50 in assay [1] is 0.53 µM; in [2], 3.93 µM; in assay [3] it was 7.34 µM; in assay [4], 3.15 µM; in assay [5], 0.495 µM; in [6], 1.09 µM. Besides, the half-inhibitory concentration (IC50) stood at 4.44 µM in assay [7]; 6.13 µM in assay [8]; 2.1 µM in assay [9]; 3.06 µM in assay [10]; 1.76 µM in [11]; 5.04 µM in assay [12]. Also, the results for the 50% inhibitory concentration (IC50) in [13], in assay [14] and in assay [15] were 4.35 µM, 4.87 µM and 1.36 µM, respectively.
